Experimental data reported in patent US7563798B2, “Substituted pyrazolo[1,5-a]pyrimidines as protein kinase inhibitors” (Schering Corporation, priority 2002, dated 2009).

Target: T1, Cyclin E/CDK2 (Homo sapiens, UniProt P24941)
T1 construct: made in house; host or cells: SF9 insect cells (baculovirus co-infection)
Experiment: Cyclin E/CDK2 in vitro kinase assay (33P-ATP, SPA beads)
Assay type: biochemical

Question: How did the IC50 turn out when Cc1cc(Nc2cc(C3CNCCS3)nc3c(-c4cnn(C)c4)cnn23)sn1 (centres unmarked) was run?
Answer: 40 µM

Question: With Cc1cc(Nc2cc(C3CCCNC3)nc3c(-c4cnn(C)c4)cnn23)sn1 (centres unmarked) as the compound, how does the IC50 read?
Answer: 46 µM

Question: With Cc1cc(Nc2cc(C3CCCNC3)nc3c(Br)cnn23)sn1 (centres unmarked) as the compound, how does the IC50 read?
Answer: 0.076 µM

Question: For Cc1cc(Nc2cc(C3CCCNC3)nc3c(-c4cncs4)cnn23)sn1 (centres unmarked), which IC50 is on record?
Answer: 3.3 µM

Question: Which IC50 does the source give for Cc1cc(Nc2cc(N3CC[C@@H](N)C3)nc3c(-c4cnn(C)c4)cnn23)sn1 here?
Answer: 49 µM

Question: For Cc1cc(Nc2cc(C3CCCNC3)nc3c(-c4coc(C#N)c4)cnn23)sn1 (centres unmarked), which IC50 is on record?
Answer: 3.6 µM

Question: How did the IC50 turn out when Cc1cc(Nc2cc(N3CC(N)C3)nc3c(-c4cnn(C)c4)cnn23)sn1 was run?
Answer: 6.7 µM

Question: How did the IC50 turn out when Cc1cc(Nc2cc(C3CCCNC3)nc3c(-c4coc(C=NO)c4)cnn23)sn1 (centres unmarked) was run?
Answer: 0.05 µM
